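The compound was tested at five concentrations on cells cultured in 96-well plates, with a 48-hour exposure period. GI50 is the concentration that inhibits growth by half.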 Active and inactive are the calls of the source. Rule as the data show it: active = GI50 up to about 1.1 µM and inactive = higher.
What was measured:
Experiment in all cases: NCI anticancer screen, dose series, 48 h
UACC-62 = system: UACC-62
SNB-19 = system: SNB-19
SN12C = system: SN12C
TK-10 = system: TK-10
SF-539 = system: SF-539
SR = system: SR
HL-60 = system: HL-60
786-0 = system: 786-0
PC-3 = system: PC-3
OVCAR-5 = system: OVCAR-5
SK-MEL-2 = system: SK-MEL-2
MDA-N = system: MDA-N
K562 = system: K562
EKVX = system: EKVX
LOX IMVI = system: LOX IMVI
RPMI-8226 = system: RPMI-8226
A498 = system: A498
HT-29 = system: HT-29
OVCAR-4 = system: OVCAR-4
U-251 = system: U-251
CCRF-CEM = system: CCRF-CEM
HCT-15 = system: HCT-15
HOP-92 = system: HOP-92
SK-MEL-28 = system: SK-MEL-28
M14 = system: M14
MDA-MB-435 = system: MDA-MB-435
DU-145 = system: DU-145
BT-549 = system: BT-549
KM12 = system: KM12
ACHN = system: ACHN
HOP-62 = system: HOP-62
NCI-H460 = system: NCI-H460
SF-295 = system: SF-295
Malme-3M = system: Malme-3M
OVCAR-8 = system: OVCAR-8
UO-31 = system: UO-31
NCI-H522 = system: NCI-H522
SK-OV-3 = system: SK-OV-3
MOLT-4 = system: MOLT-4
COLO 205 = system: COLO 205
IGROV-1 = system: IGROV-1
MDA-MB-231 = system: MDA-MB-231
SW-620 = system: SW-620
Hs-578T = system: Hs-578T
UACC-257 = system: UACC-257
A549 = system: A549
MCF7 = system: MCF7
NCI-H226 = system: NCI-H226
NCI/ADR-RES = system: NCI/ADR-RES
HCT-116 = system: HCT-116
NCI-H23 = system: NCI-H23
RXF 393 = system: RXF 393
OVCAR-3 = system: OVCAR-3
HCC 2998 = system: HCC 2998
T47D = system: T47D
SK-MEL-5 = system: SK-MEL-5
SF-268 = system: SF-268
CAKI-1 = system: CAKI-1
SNB-75 = system: SNB-75

What does the source list for `O=C(COc1ccc(OCC(=O)NNC2=NC(c3cc(F)c(Cl)cc3Cl)CS2)c(Cl)c1)NNC1=NC(c2cc(F)c(Cl)cc2Cl)CS1` (stereo unspecified)?
GI50 (UACC-62): 18.6 µM (inactive); GI50 (SNB-19): 42.5 µM (inactive); GI50 (SN12C): 20.7 µM (inactive); GI50 (TK-10): 25.8 µM (inactive); GI50 (SF-539): 28.6 µM (inactive); GI50 (SR): 35.9 µM (inactive); GI50 (HL-60): 38.1 µM (inactive); GI50 (786-0): 60.4 µM (inactive); GI50 (PC-3): 22.1 µM (inactive); GI50 (OVCAR-5): 36.7 µM (inactive); GI50 (SK-MEL-2): 36.2 µM (inactive); GI50 (MDA-N): 28.4 µM (inactive); GI50 (K562): 24 µM (inactive); GI50 (EKVX): 20.8 µM (inactive); GI50 (LOX IMVI): 1.04 µM (active); GI50 (RPMI-8226): 20 µM (inactive); GI50 (A498): 23.7 µM (inactive); GI50 (HT-29): 25.6 µM (inactive); GI50 (OVCAR-4): 14.7 µM (inactive); GI50 (U-251): 14.4 µM (inactive); GI50 (CCRF-CEM): 28.6 µM (inactive); GI50 (HCT-15): 16.7 µM; GI50 (HOP-92): 21.6 µM (inactive); GI50 (SK-MEL-28): 29.5 µM (inactive); GI50 (M14): 74 µM (inactive); GI50 (MDA-MB-435): 16.7 µM (inactive); GI50 (DU-145): 22.8 µM (inactive); GI50 (BT-549): 24.1 µM (inactive); GI50 (KM12): 44.4 µM (inactive); GI50 (ACHN): 38.5 µM (inactive); GI50 (HOP-62): > 100 µM (inactive); GI50 (NCI-H460): 29.9 µM (inactive); GI50 (SF-295): 19.8 µM (inactive); GI50 (Malme-3M): > 100 µM (inactive); GI50 (OVCAR-8): 20.8 µM (inactive); GI50 (UO-31): > 100 µM (inactive); GI50 (NCI-H522): 14.2 µM (inactive); GI50 (SK-OV-3): > 100 µM (inactive); GI50 (MOLT-4): 26.2 µM (inactive); GI50 (COLO 205): 34.2 µM (inactive); GI50 (IGROV-1): 20.1 µM (inactive); GI50 (MDA-MB-231): 20 µM (inactive); GI50 (SW-620): 30.6 µM (inactive); GI50 (Hs-578T): 20.6 µM (inactive); GI50 (UACC-257): 48 µM (inactive); GI50 (A549): 14.3 µM (inactive); GI50 (MCF7): 14 µM (inactive); GI50 (NCI-H226): 19.1 µM (inactive); GI50 (NCI/ADR-RES): 44.8 µM (inactive); GI50 (HCT-116): 31.5 µM (inactive); GI50 (NCI-H23): 20.2 µM (inactive); GI50 (RXF 393): 19.8 µM (inactive)

Which results are given for `C=C1C[C@@H]2CC[C@@]34CC5O[C@H]6C(O[C@H]7CC[C@H](CC(=O)O[C@@H]8[C@@H](C)[C@@H]9O[C@@H]%10C[C@]%11(C[C@@H]%12O[C@]%13(C[C@H](C)[C@@H]%14O[C@@H]%15CC(C(COC(C)=O)OC(C)=O)O[C@@H]%15C[C@@H]%14O%13)C[C@H](C)[C@@H]%12O%11)O[C@@H]%10C[C@@H]9O[C@H]8CC8O[C@@H](CC[C@@H]1O2)C[C@@H](C)C8(O)CO)O[C@@H]7[C@@H]6O3)[C@H]5O4` (stereo partly specified)?
GI50 (UACC-62): 0.242 µM (active); GI50 (SNB-19): 0.701 µM (active); GI50 (SN12C): > 0.838 µM (active); GI50 (TK-10): > 0.36 µM (active); GI50 (OVCAR-3): 431 nM (active); GI50 (HCC 2998): 4.89 nM (active); GI50 (SR): 0.117 µM (active); GI50 (786-0): 0.392 µM (active); GI50 (PC-3): 0.399 µM (active); GI50 (OVCAR-5): > 1 µM (active); GI50 (SK-MEL-2): 0.721 µM (active); GI50 (K562): 0.513 µM (active); GI50 (EKVX): > 0.923 µM (active); GI50 (LOX IMVI): 0.432 µM (active); GI50 (RPMI-8226): 0.413 µM (active); GI50 (A498): > 0.597 µM (active); GI50 (OVCAR-4): > 1 µM (active); GI50 (U-251): 0.436 µM (active); GI50 (CCRF-CEM): 0.995 µM (active); GI50 (HCT-15): 0.527 µM; GI50 (HOP-92): > 1 µM (active); GI50 (T47D): > 451 nM (active); GI50 (SK-MEL-28): > 1 µM (active); GI50 (M14): 0.587 µM (active); GI50 (SK-MEL-5): 243 nM (active); GI50 (MDA-MB-435): 0.0826 µM (active); GI50 (DU-145): 0.375 µM (active); GI50 (BT-549): 0.0908 µM (active); GI50 (SF-268): 455 nM (active); GI50 (KM12): 0.327 µM (active); GI50 (ACHN): 0.708 µM (active); GI50 (HOP-62): > 1 µM (active); GI50 (NCI-H460): 0.258 µM (active); GI50 (SF-295): 0.297 µM (active); GI50 (OVCAR-8): 0.668 µM (active); GI50 (UO-31): > 0.805 µM (active); GI50 (NCI-H522): 0.137 µM (active); GI50 (CAKI-1): 652 nM (active); GI50 (SK-OV-3): > 1 µM (active); GI50 (SNB-75): 336 nM (active); GI50 (MOLT-4): > 0.548 µM (active); GI50 (COLO 205): 0.311 µM (active); GI50 (IGROV-1): 0.371 µM (active); GI50 (MDA-MB-231): > 0.776 µM (active); GI50 (SW-620): 0.6 µM (active); GI50 (Hs-578T): 0.272 µM (active); GI50 (UACC-257): 0.0716 µM (active); GI50 (A549): 0.413 µM (active); GI50 (MCF7): 0.249 µM (active); GI50 (NCI-H226): 0.45 µM (active); GI50 (NCI/ADR-RES): > 1 µM (active); GI50 (HCT-116): 0.292 µM (active); GI50 (NCI-H23): 0.264 µM (active); GI50 (RXF 393): 0.0359 µM (active)

From ChEMBL document CHEMBL1201862, “PubChem BioAssay data set” (2004)
